# In patent US20180168208A1 (priority 2014, published 2018):
# Where two headings read alike, the source gives them in different places.
# Experiments:
# Assay in all cases: cell-based
# T1R1/T1R3 receptor [1] = molecular target: T1, T1R1/T1R3 receptor (Felis catus, UniProt E3UMS2); format: cell-based
# Source text: (§1) HEK293 cells that stably express T1R3 and inducibly express T1R1 were exposed to transmembrane compounds alone or in combination with one or more amino acids and/or one or more nucleotides to activate the umami receptor. Activation of the T1R1/T1R3 receptor was detected by a change in intracellular calcium levels using a calcium sensitive fluorescent dye. Cells that express T1R3 but not T1R1 were used as a control. A FLIPR® Tetra or a FlexStation® 3 was used for data capture.
# (§2) In each experiment, serial dilutions of up to 10 mM of the transmembrane compound were added to the T1R1/T1R3-expressing cells.
# T1R1/T1R3 receptor [2] = molecular target: T1, T1R1/T1R3 receptor
# Source text: as §1, with “nucleotide derivatives” for “transmembrane compounds”, “alone” for “alone or in combination with one or more amino acids and/or one or more nucleotides”
# as §1, with “nucleotide derivatives” for “transmembrane compounds”, “dye and/or a luminescent reporter system.” for “dye.”
# as §1, §2
# cat T1R1/T1R3 receptor = molecular target: T2, cat T1R1/T1R3 receptor (Felis catus, UniProt A0ABI7Z2I4)
# T2 sequence (A0ABI7Z2I4 171-420): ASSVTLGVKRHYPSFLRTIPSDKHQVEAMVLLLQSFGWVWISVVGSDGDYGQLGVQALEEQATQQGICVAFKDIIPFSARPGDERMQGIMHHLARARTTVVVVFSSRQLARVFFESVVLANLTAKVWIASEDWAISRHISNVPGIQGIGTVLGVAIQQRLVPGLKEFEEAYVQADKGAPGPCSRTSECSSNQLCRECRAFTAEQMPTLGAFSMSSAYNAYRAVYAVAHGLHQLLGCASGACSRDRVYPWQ
# T2 sequence (Q49KI5 25-865 E206Q/N523D/F654L partner): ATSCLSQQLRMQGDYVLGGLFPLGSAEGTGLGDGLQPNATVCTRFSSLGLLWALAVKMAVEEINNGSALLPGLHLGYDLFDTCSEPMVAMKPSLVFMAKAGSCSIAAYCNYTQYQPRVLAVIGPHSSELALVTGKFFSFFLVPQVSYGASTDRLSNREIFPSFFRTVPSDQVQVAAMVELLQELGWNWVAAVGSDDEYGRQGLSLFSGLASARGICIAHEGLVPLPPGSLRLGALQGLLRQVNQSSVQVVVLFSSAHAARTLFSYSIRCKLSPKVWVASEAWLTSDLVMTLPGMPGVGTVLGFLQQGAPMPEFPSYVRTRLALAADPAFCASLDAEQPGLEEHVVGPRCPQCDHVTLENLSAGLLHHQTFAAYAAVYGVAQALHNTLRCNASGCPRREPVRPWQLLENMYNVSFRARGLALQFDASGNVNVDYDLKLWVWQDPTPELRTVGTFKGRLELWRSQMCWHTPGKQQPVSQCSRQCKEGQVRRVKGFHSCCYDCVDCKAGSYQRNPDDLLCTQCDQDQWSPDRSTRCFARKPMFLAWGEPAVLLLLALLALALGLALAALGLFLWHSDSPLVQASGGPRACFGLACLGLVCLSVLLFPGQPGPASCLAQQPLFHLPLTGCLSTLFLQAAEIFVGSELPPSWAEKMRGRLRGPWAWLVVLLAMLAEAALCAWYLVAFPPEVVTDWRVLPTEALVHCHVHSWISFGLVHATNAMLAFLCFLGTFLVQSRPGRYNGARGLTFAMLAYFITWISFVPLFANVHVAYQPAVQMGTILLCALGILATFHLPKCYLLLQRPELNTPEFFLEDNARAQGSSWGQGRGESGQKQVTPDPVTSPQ
# Source text: as §1, with “nucleotide derivatives” for “transmembrane compounds”, “dye and/or a luminescent reporter system.” for “dye.”
# [3] = EC50 (effect with 0.2 mM IMP), positive controls measured with 0.2 mM IMP
# [4] = EC50 (effect with 0.2 mM IMP), control compounds, with 0.2 mM IMP, Table 25
# [5] = EC50 (mM), +IMP (0.2 mM), in the presence of 0.2 mM IMP
# [6] = in the presence of 0.2 mM IMP, relative to alanine
# [7] = threshold concentration in the presence of 0.2 mM IMP
# [8] = EC50 (mM), +Alanine (20 mM) + IMP (0.2 mM), in the presence of 20 mM alanine and 0.2 mM IMP
# [9] = T1R1/T1R3 EC50 +0.2 mM IMP, +0.2 mM IMP
# [10] = T1R1/T1R3 EC50 +20 mM L-alanine, +20 mM L-alanine
# [11] = alone in buffer, read-out: T1R1/T1R3 EC50 alone in buffer
# [12] = compound alone in buffer, read-out: EC50 (mM), +buffer (alone)
# [13] = T1R1/T1R3 EC50 +20 mM L-alanine + 0.2 mM IMP, +20 mM L-alanine + 0.2 mM IMP
SMILES,EC50 (T1R1/T1R3 receptor [1]; [3]) [µM],EC50 (T1R1/T1R3 receptor [2]; [4]) [mM],EC50 (T1R1/T1R3 receptor [2]; [5]) [mM],"Max resp % of Ala, +IMP (0.2 mM) (T1R1/T1R3 receptor [2]; [6]) [%]","Thres (mM), +IMP (0.2 mM) (T1R1/T1R3 receptor [2]; [7]) [mM]",EC50 (cat T1R1/T1R3 receptor; read-out: EC50) [µM],"Max resp % of IMP, +Alanine (20 mM) (T1R1/T1R3 receptor [2]) [%]","Thres (mM), +Alanine (20 mM) (T1R1/T1R3 receptor [2]) [mM]",EC50 (T1R1/T1R3 receptor [2]; [9]) [mM],also measured
"N[C@@H](Cc1c[nH]cn1)C(=O)O [L-Histidine, L-histidine]",10200 ± 1700,15.3 ± 3.2,15.3,36.3,10.0,10200 ± 1700,,,,
"N[C@@H](Cc1ccc(O)cc1)C(=O)O [L-Tyrosine, tyrosine]",,9.3 ± 1.7,9.3,38.0,3.0,10300 ± 900,,,,
"N[C@@H](Cc1ccccc1)C(=O)O [L-Phenylalanine, reference compound]",1900 ± 100,0.5 ± 0.1,0.5,75.9,0.1,1900 ± 100,,,,"Max resp ΔF/F, +IMP (0.2 mM) (T1R1/T1R3 receptor [2]; in the presence of 0.2 mM IMP): 0.5900 ΔF/F"
O=C(NCCc1ccccc1)c1ccccc1 [N-phenethylbenzamide],,,0.12,126.0,0.01,,20.4,0.6,0.12 ± 0.03,"EC50 (T1R1/T1R3 receptor [2]; [8]): 0.09 mM; EC50 (T1R1/T1R3 receptor [2]; EC50 (mM), +Alanine (20 mM), in the presence of 20 mM alanine): > 1 mM; EC50 (T1R1/T1R3 receptor [2]; [10]): > 1 mM; EC50 (T1R1/T1R3 receptor [2]; [11]): 0.33 ± 0.01 mM; EC50 (T1R1/T1R3 receptor [2]; [12]): 0.33 mM; Max resp ΔF/F, +IMP (0.2 mM) (T1R1/T1R3 receptor [2]; in the presence of 0.2 mM IMP): 0.9800 ΔF/F"
"N[C@@H](Cc1c[nH]c2ccccc12)C(=O)O [L-Tryptophan, tryptophan]",900 ± 100,0.5 ± 0.1,0.5,86.8,0.1,900 ± 100,,,,
O=C(NCCc1ccccc1)c1cccnc1 [N-phenethylnicotinamide],,,0.35,149.5,0.03,,83.6,0.1,0.35 ± 0.1,EC50 (T1R1/T1R3 receptor [2]; [8]): 0.22 mM; EC50 (T1R1/T1R3 receptor [2]; [11]): 0.37 ± 0.02 mM; EC50 (T1R1/T1R3 receptor [2]; [12]): 0.37 mM
"O=C(O)C1CCCCC1C(=O)Nc1cc(Cl)cc(Cl)c1 (stereo not shown) [2-((3,5-dichlorophenyl)carbamoyl)cyclohexanecarboxylic acid]",,,,157.9,0.03,,163.5,0.1,,
"O=C(NCCCCNC(=O)c1cccnc1)c1cccnc1 [N,N′-(butane-1,4-diyl)dinicotinamide]",,,,49.2,0.1,,9.5,1.0,,
CC(=O)Nc1ccc(C(=O)Nc2cc(-c3ccccc3)nn2CCO)cc1 [4-acetamido-N-(1-(2-hydroxyethyl)-3-phenyl-1H-pyrazol-5-yl)benzamide],,,> 1,58.8,,,1.8,,> 0.1,EC50 (T1R1/T1R3 receptor [2]; [13]): > 0.1 mM
Nc1nc2c(ncn2[C@@H]2O[C@H](COP(=O)(O)OP(=O)(O)O)[C@@H](O)[C@H]2O)c(=S)[nH]1 [6-Thioguanosine-5′-O-diphosphate],,,,9.3,,,152.8,0.03,,"EC50 (T1R1/T1R3 receptor [2]; [8]): 0.28 mM; Max resp ΔF/F, +IMP (0.2 mM) (T1R1/T1R3 receptor [2]; in the presence of 0.2 mM IMP): 0.0720 ΔF/F"
O=C(O)C1CCCCC1C(=O)Nc1cc(Cl)cc(Cl)c1 (stereo not shown),,,,,,,,,0.18 ± 0.01,EC50 (T1R1/T1R3 receptor [2]): 0.49 ± 0.01 mM; EC50 (T1R1/T1R3 receptor [2]; [11]): 0.37 ± 0.05 mM
"CSCC[C@H](N)C(=O)O [L-Methionine, methionine]",25500 ± 3700,,,,,,,,,"Max resp % of Ala, +IMP (0.2 mM) (T1R1/T1R3 receptor [2]): 45.0%; Thres (mM), +IMP (0.2 mM) (T1R1/T1R3 receptor [2]): 30.0 mM; EC50 (T1R1/T1R3 receptor [2]; EC50 (effect with 0.2 mM IMP)): 33.9 ± 1.5 mM; EC50 (T1R1/T1R3 receptor [2]; EC50 (mM), +IMP (0.2 mM)): 33.9 mM; EC50 (cat T1R1/T1R3 receptor): 25500 ± 3700 µM"
"CCCCc1nn(CC(=O)N2CCCC2)c(=O)n1Cc1ccccc1 [4-benzyl-3-butyl-1-(2-oxo-2-(pyrrolidin-1-yl)ethyl)-1H-1,2,4-triazol-5(4H)-one]",,,,193.2,0.1,,129.9,0.3,> 0.3,EC50 (T1R1/T1R3 receptor [2]; [13]): > 0.3 mM
CC(C)CC(NC(=O)c1ccccc1)C(N)=O (racemic),,,,204.5,0.1,,125.5,0.3,,EC50 (T1R1/T1R3 receptor [2]; [8]): 0.91 mM
O=P(O)(O)OP(=O)(O)OP(=O)(O)OC[C@H]1O[C@@H](n2cnc3c(Cl)ncnc32)[C@H](O)[C@@H]1O [6-Chloropurine riboside-5′-O-triphosphate],,,,30.2,0.003,,50.4,0.01,,"EC50 (T1R1/T1R3 receptor [2]; [11]): > 0.03 mM; EC50 (T1R1/T1R3 receptor [2]; [12]): > 0.3 mM; Activity (T1R1/T1R3 receptor [2]; overall call: active or N/A (not active) on T1R1/T1R3): active; EC50 (T1R1/T1R3 receptor [2]; read-out: EC50 (mM), +Alanine (20 mM)): > 0.3 mM; EC50 (T1R1/T1R3 receptor [2]; read-out: EC50 (mM), +Alanine (20 mM) + IMP (0.2 mM)): > 0.3 mM; EC50 (T1R1/T1R3 receptor [2]; read-out: EC50 (mM), +IMP (0.2 mM), in the presence of 0.2 mM IMP): > 0.3 mM; EC50 (T1R1/T1R3 receptor [2]; read-out: T1R1/T1R3 EC50 +0.2 mM IMP, +0.2 mM IMP): > 0.03 mM; EC50 (T1R1/T1R3 receptor [2]; read-out: T1R1/T1R3 EC50 +20 mM L-alanine): > 0.03 mM; EC50 (T1R1/T1R3 receptor [2]; read-out: T1R1/T1R3 EC50 +20 mM L-alanine + 0.2 mM IMP): > 0.03 mM; EC50 (cat T1R1/T1R3 receptor): > 30 µM; Threshold (cat T1R1/T1R3 receptor): 0.01 mM"
"Nc1nc2c(ncn2[C@@H]2O[C@H](COP(=O)(O)O)[C@@H](O)[C@H]2O)c(=O)[nH]1 [GMP, guanosine monophosphate, reference compound]",50 ± 4,0.09 ± 0.02,,,,,,,,"EC50 (T1R1/T1R3 receptor [1]): 50 ± 20 µM; EC50 (T1R1/T1R3 receptor [1]; alone in buffer, read-out: EC50 - alone): 40 ± 10 µM; EC50 (cat T1R1/T1R3 receptor): 20 µM; Threshold (cat T1R1/T1R3 receptor): 0.008 mM"
"O=C(NCCc1ccccc1)c1ccc2c(c1)OCO2 [N-phenethylbenzo[d][1,3]dioxole-5-carboxamide]",,,0.04,92.0,0.01,,11.3,1.0,0.04 ± 0.01,EC50 (T1R1/T1R3 receptor [2]; [8]): 0.03 mM; EC50 (T1R1/T1R3 receptor [2]; [10]): > 1 mM; EC50 (T1R1/T1R3 receptor [2]; [11]): 0.12 ± 0.07 mM; EC50 (T1R1/T1R3 receptor [2]; [12]): 0.12 mM
"N[C@@H](CO)C(=O)O [L-Serine, serine]",31500 ± 2300,15.1 ± 2.3,15.1,100.0,3.0,31500 ± 2300,,,,
"N[C@@H](CS)C(=O)O [L-Cysteine, cysteine]",39500 ± 1900,43.9 ± 5.6,43.9,74.6,10.0,39500 ± 1900,,,,"Max resp ΔF/F, +IMP (0.2 mM) (T1R1/T1R3 receptor [2]; in the presence of 0.2 mM IMP): 0.5800 ΔF/F"
